Format in all cases: cell-based
Experiment [1] concerns IFN-β production in PBMCs. Put plainly: Decitabine-stimulated human PBMC assay. The following applies: PBMCs with anti-CD3/anti-CD28 and 10 μM decitabine, 5 days. The protocol:
EasySep buffer (32 mL, Stem Cell, cat. #20144) was used to dilute 8 mL of LRSC buffy coat (from fresh Leukopak) with gentle mixing. The diluted buffy coat (20 mL) was transferred into each of two SepMate 50 tubes, and the tubes were filled with 15 mL of Lyphoprep (Stem Cell, ct. #07851) density gradient. The SepMate tubes were then centrifuged at […] for 10 minutes at room temperature with the brake on. The top layer of supernatant was collected in SepMate tubes by quickly pouring it into a new 50 mL conical tube. The PBMCs were washed with EasySep buffer x2 by centrifuging at 300G for 5 minutes. The cells were resuspended in 30 mL of EasySep and centrifuged at 100G for 5 minutes with the brake off, and the platelets were removed. The cells were then resuspended in 6 mL of 1×RBC lysis buffer (InvitroGen) and incubated at 37° C. for 5 minutes. Then, 25 mL of EasySep buffer was mixed into the tube and it was centrifuged at 300G for 5 minutes. The cells were resuspended in 10 mL of EasySep buffer and the cells were then counted with Cellometer (AO/PI). The PBMCs were resuspended in RPMI1640 (ThermoFisher)+10% FBS (HyClone)+p/s at 3×10^6/mL. The PBMCs (100 μL, 300 k PBMCs) were then seeded in a 96-well flat bottom microplate (Corning) that had been precoated with 100 μL of anti-CD3 antibody (10 μg/mL in PBS, Biolegend) or PBS at 4° C., one day before the assay was commenced. […]

Experiment [2] concerns the target T1, LINE1 reverse transcriptase (Homo sapiens, UniProt O00370).
T1 construct: expressed in transfected cells
Description: Transient artificial-intron Cis LINE1 reporter assay. The following applies: HEK 293 cells, FLuc/RLuc ratio, read-out: IC50 for inhibition of FLuc luminescence. The protocol:
Intron-disrupted Firefly luciferase (FLuc) expression cassettes were generated as described by Xie, Y. et al. “Characterization of L1 retrotransposition with high-throughput dual-luciferase assays,” Nucleic Acid Res. (2011) Vol. 39, No. 3, e16. In addition, the plasmid contained an intact Renilla luciferase (RLuc) expression cassette on the vector backbone, in order to normalize transfection efficiency and measure potential cell toxicity.
HEK 293 cells were seeded in 96-well plates at 1,000 cells/well in 55 μL and grown for 24 hours. Cells were transfected with FuGeneHD (Promega) following the manufacturer's protocol. Each well received 0.133 ng plasmid, 0.4 μL FuGeneHD reagent, and 4.5 μL GlutaMAX-I-supplemented Opti-MEM I reduced-serum medium (Invitrogen). Cells were simultaneously treated with test compound serially diluted starting at 100 μM in a 3-fold dilution dose response.
Luminescence was measured using the Dual-Glo Luciferase Assay System (Promega) following the manufacturer's instructions. The ratio between FLuc and RLuc gene expression was used to report LINE1 activity.

The subject of a further experiment is FaDu cells. Description: Cancer cell viability assay with 3D cell colonies (CellTiter-Glo), FaDu. The following applies: Homo sapiens, FaDu, 168 h, 7 days. The protocol: (§1) Ovarian cancer cell line SK-OV-3 cells were cultured in McCoy's 5a media containing 10% FBS. Ovarian cancer cell line OVCAR-8 cells were cultured in RPMI media containing 10% FBS. Additional cancer cell lines were cultured in the following media: • Ovarian cancer SW756 cells—L-15 (100% air)+10% FBS • Esophageal cancer TE-1 cells—RPMI-1640+10% FBS • Esophageal cancer KYSE-410 cells—RPMI-1640+5˜10% FBS • Esophageal cancer KYSE-70 cells—RPMI-1640+10% h.i.FBS. • Pharyngeal cancer FaDu cells—MEM+0.01 mM NEAA+10% FBS
(§2) Cell colony formation was tested using a 3D methylcellulose-based CellTiter-Glo (CTG) viability assay (Cat. No: G7573, Promega). Briefly, cells were inoculated into 96-well plates (at 1,500 cells per well) into a solution of 0.65% methylcellulose in growth media and incubated overnight at 37° C. in 5% CO2. The next day, serially diluted test compound (islatravir) or positive control (cisplatin, Cat. No. 6J015A89, Qilu Pharma) were added at the indicated concentrations, and the cells were incubated for 7 days. On day seven, 100 μL of CTG reagent was added, and the plates were incubated at room temperature for 20 min. Luminescence was read on an Envision Multi Label Reader according to manufacturer's instructions. IC50 values were determined using the following calculation: […]

The target of experiment [3] is T1, LINE1 reverse transcriptase. Put plainly: Stable artificial-intron Cis LINE1 reporter assay (HeLa Tet-On 3G). The following applies: HeLa L1 reporter cells, doxycycline induced, 72 h; read-out: IC50 for inhibition of FLuc luminescence. An excerpt:
A stable HeLa Tet-On 3G (Takara, cat no 631183) cell line expressing a bi-directional inducible LINE1 construct was generated as described in Xie, Y. et al. “Cell division promotes efficient retrotransposition in a stable L1 reporter cell line,” Mobile DNA (2013) 4:10. Single cell clones were screened for high Luciferase expression and the highest expression Firefly expressing clone was chosen for compound testing.
Test compound was serially diluted in DMSO and spotted in 96-well plates. Subsequently the HeLa L1 artificial-intron reporter cells were plated into the compound-containing wells (8,000 cells/well), and the cells were induced for reporter expression with doxycycline (Sigma cat no D9891) at a final concentration of 500 ng/mL. Luminescence was measured 72 h after plating using the Dual-Glo Luciferase Assay System (Promega cat no E2940) following the manufacturer's instructions. The Firefly Luciferase activity was used to report LINE1 activity.

Another experiment relates to SK-OV-3 cells. Put plainly: Cancer cell viability assay with 3D cell colonies (CellTiter-Glo), SK-OV-3. The note with it: Homo sapiens, SK-OV-3, 168 h; 3D tumorsphere growth, 7 days. As to the method:
as §1, §2

The next experiment concerns TE-1 cells. Description: Cancer cell viability assay with 3D cell colonies (CellTiter-Glo), TE-1. The note with it: Homo sapiens, TE-1, 168 h, 7 days. The protocol:
as §1, §2

In another experiment the test system is OVCAR-8 cells. Put plainly: Cancer cell viability assay with 3D cell colonies (CellTiter-Glo), OVCAR-8. The following applies: Homo sapiens, OVCAR-8, 168 h; 3D tumorsphere growth, 7 days. As to the method: as §1, §2

Experimental findings from patent US20250186475A1, “METHODS OF TREATING MEDICAL CONDITIONS USING ISLATRAVIR OR A RELATED COMPOUND” (ROME Therapeutics, Inc., priority 2022, published 2025) are described below.

pIC50: −log10 of the molar value.

T1 sequence (O00370 whole entry, looked up): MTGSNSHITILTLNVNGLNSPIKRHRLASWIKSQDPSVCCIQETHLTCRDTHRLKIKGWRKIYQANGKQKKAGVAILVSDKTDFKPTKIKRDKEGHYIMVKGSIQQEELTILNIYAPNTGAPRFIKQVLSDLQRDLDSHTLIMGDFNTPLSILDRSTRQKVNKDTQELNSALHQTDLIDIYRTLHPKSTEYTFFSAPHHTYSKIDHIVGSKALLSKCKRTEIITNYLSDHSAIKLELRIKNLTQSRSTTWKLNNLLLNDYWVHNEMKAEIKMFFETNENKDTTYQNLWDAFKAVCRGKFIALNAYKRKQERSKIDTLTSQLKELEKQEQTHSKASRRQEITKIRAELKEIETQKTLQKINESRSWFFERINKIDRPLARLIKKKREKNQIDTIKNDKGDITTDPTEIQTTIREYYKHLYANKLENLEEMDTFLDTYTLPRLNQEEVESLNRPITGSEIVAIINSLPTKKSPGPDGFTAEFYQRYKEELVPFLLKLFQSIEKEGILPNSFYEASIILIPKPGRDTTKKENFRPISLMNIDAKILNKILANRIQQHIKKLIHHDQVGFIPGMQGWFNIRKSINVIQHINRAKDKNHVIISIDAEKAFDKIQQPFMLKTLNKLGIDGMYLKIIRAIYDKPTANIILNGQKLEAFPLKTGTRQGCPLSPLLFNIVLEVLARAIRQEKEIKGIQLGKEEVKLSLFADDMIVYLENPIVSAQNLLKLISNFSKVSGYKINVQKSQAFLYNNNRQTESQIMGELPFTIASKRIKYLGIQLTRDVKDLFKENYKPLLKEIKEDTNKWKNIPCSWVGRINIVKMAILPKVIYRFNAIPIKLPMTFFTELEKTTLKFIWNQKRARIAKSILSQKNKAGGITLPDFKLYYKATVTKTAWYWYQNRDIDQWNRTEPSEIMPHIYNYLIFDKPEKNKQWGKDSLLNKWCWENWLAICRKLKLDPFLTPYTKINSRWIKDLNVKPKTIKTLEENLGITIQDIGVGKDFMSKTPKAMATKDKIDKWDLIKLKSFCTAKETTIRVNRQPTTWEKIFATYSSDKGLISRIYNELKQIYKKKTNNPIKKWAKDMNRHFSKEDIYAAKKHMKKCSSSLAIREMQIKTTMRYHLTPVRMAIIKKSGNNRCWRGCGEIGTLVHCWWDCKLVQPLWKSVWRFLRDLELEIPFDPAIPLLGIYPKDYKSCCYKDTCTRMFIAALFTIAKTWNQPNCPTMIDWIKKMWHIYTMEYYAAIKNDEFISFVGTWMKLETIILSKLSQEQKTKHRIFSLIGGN

On to `C#C[C@]1(CO)O[C@@H](n2cnc3c(N)nc(F)nc32)C[C@@H]1O` [Islatravir, (2R,3S,5R)-5-(6-amino-2-fluoro-9H-purin-9-yl)-2-ethynyl-2-(hydroxymethyl)tetrahydrofuran-3-ol], for which the “production of IFN-β” value in experiment [1] is on record as “activated production of IFN-β”. In addition, the pIC50 is 7.70 in experiment [2] and 9.16 in experiment [3]. Also, the IC50 was 10 to 30 µM with FaDu cells, 6.54 µM in the experiment with SK-OV-3 cells, no more than 10 µM with TE-1 cells and 1.95 µM in the experiment with OVCAR-8 cells.
